Reference: PMC10611578, “Aβ1-6A2V(D) peptide, effective on Aβ aggregation, inhibits tau misfolding and protects the brain after traumatic brain injury” (Molecular Psychiatry, 2023)
Square brackets hold non-standard residues; d marks the D form. Peptide text beside a SMILES is read from it.

Legend:
[1] = system: tau (P301L mouse brain homogenate); experiment: Western blot of total tau level in P301L brain lysate; format: biochemical, human tau with P301L mutation, JNPL3 mice; conditions: 50 µM, 2 h at 25 °C, 30 µg protein/100 µL, PBS pH 7.4, DAKO/actin band; mean ± SD, N = 3, p < 0.05
From the text: Male JNPL3 mice expressing 0N4R human tau with the P301L mutation (P301L) were obtained from Taconic Biosciences (New York, USA) (Tau Model 2508). Controls were non-transgenic (Non-tg) male mice with the same mixed C57BL/6, DBA/2, SW genetic background as P301L mice. Triple transgenic mice harboring human PS1(M146 V), APP(SW), and MAPT(P301L) transgenes, referred to as 3xTg-AD, were kindly provided by Dr. Oddo [34]. Male and female C57BL/6 J mice, referred to as wild type (WT), were purchased from Envigo (Italy).
Fig. 2 Effect of Aβ1-6A2V-TAT(D) on the toxicity caused in C. elegans by misfolded tau in P301L and TBI brain homogenates. A Brains from P301L mice were homogenized in 10 mM PBS, pH 7.4, and given to worms alone or in the presence of Aβ1-6A2V-TAT(D). B Worms were administered with brain homogenate (30 µg protein/100 worms/100 µL) in the absence or presence of Aβ1-6A2V-TAT(D) (0-200 µM). […] E Representative western blotting showing the total level of tau and tau quantification expressed as the mean volume of the DAKO band immunoreactivity/actin band. […] The reaction was then stopped, and samples were analyzed by western blot. […]
Lysates from brain homogenates of P301L mice (30 µg protein/100 µL) incubated for 2 h at 25°C with 50 µM Aβ1-6A2V-TAT(D), 50 µM Aβ1-6A2V(D), 50 µM TAT or 10 mM PBS, pH 7.4, were analyzed by immunoblotting using 10% SDS-PAGE gel and Western blotting analysis. […]

[2] = MALDI-TOF imaging brain biodistribution after intranasal administration, TBI mice; format: in vivo, mouse (3xTg-AD
Protocol: The Aβ1-6A2V(D) was administered to 3xTg-AD and 24-month-old WT TBI underwent mice by repeated intranasal administration as described in [39]. In brief, mice were acclimatized for 2 weeks before the surgery and the treatment. Aβ1-6A2V(D) was administered to mice at 50 mg/kg body weight (b.w.) (about 5 µL/nostril/mouse, 10 µL total/each treatment session/mouse) starting at 10 min post-TBI and every 48 h up to 6 days post-injury, using a 20 µL pipette and gel loading pipette tip. At each treatment session, the mice were held in place for 30 seconds after the first 5 µL administration and then left free to move in a cage for 30 seconds before administering the remaining treatment/vehicle. Weight was assessed before each intranasal administration. Neurological functions were monitored longitudinally and plasma levels of neurofilament light (NfL) were assessed at sacrifice as detailed in the Supplementary information (sections ‘Behavioural test’ and ‘Plasmatic neurofilament light’). Seven days after surgery, the mice were sacrificed, the brain was removed, and ipsilateral cortical areas were dissected out, immediately frozen on dry ice, and stored at −80 °C until their use for biochemical and C. elegans studies. At 4 h, 24 h, 48 h, and 72 h after surgery, a subset of mice (n = 3) was sacrificed, and their brains were removed, frozen immediately in liquid nitrogen, and stored at −80 °C until matrix-assisted laser desorption/ionization (MALDI)-imaging analysis. The investigators were blinded to treatment allocation during the assessment of the results.
Fig. 3 Biodistribution of Aβ1-6A2V(D) in brain parenchyma of 3xTg-AD injured mice after intranasal administration. A Mice were subjected to TBI, randomly distributed into two groups, and treated intranasally 10 min post-injury with either a single dose of Aβ1-6A2V(D) (50 mg/kg b.w.) or saline (vehicle). MALDI-imaging analyses were performed 4-h, 24-h, 48-h, and 72-h post-administration. B Representative images of Aβ1-6A2V(D) biodistribution assessed by MALDI-TOF and imaged as a heatmap (red > Aβ1-6A2V(D) concentration > deep purple).
Studies were carried out as described by Catania et al. to confirm that the intranasal administration of Aβ1-6A2V(D) to injured mice allows the efficient distribution of the peptide in the brain tissue. Brains from injured 3xTg-AD mice were used to prepare […] sections (14 μm thickness) at -20°C in a cryostat. Fourteen µm coronal sections of fresh-frozen brains were cut and serially collected from bregma +0.8 mm to -2.7 mm at 700 µm intervals for MALDI analysis and Cresyl violet staining to pair Aβ1-6A2V(D) biodistribution to anatomical structures. […]

BACE = biological target: T1, BACE (Homo sapiens, UniProt P56817); experiment: BACE1 Inhibitor Screening Kit in vitro; format: biochemical; conditions: BACE1 Inhibitor Screening Kit ab283408, 60 min at 37 °C, fluorescence Ex/Em 345/500 nm; read-out: IC50 for inhibition of BACE activity in vitro
T1 construct: purchased Abcam ab283408
T1 sequence (P56817 46-501, species assumed): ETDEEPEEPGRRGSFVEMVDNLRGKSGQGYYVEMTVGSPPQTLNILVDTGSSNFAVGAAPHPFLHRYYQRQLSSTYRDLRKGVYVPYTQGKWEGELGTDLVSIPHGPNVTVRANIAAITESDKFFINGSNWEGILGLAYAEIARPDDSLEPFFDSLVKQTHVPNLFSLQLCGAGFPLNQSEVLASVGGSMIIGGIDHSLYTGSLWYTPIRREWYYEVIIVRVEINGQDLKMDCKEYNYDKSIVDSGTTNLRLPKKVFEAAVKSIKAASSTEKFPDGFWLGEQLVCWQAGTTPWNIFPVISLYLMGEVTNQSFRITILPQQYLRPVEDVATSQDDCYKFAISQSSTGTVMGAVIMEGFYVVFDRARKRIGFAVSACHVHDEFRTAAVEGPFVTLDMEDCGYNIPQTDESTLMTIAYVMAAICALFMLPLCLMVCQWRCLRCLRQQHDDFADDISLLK
Protocol: The ability of Aβ1-6A2V(D) to inhibit BACE activity was measured in vitro as described in the BACE1 Inhibitor Screening Kit ab283408 (Abcam, Cambridge, UK). Increasing concentrations of Aβ1-6A2V(D) were employed. Fluorescence was read for 60 min at 37°C at Ex/Em= 345/500 nm using a spectrophotometer (Infinite M200, Tecan, Männedorf, Switzerland). BACE activity was measured in the ipsilateral cortex of 3xTg-AD TBI mice treated with or without the peptide using the β-Secretase Activity Fluorometric Assay Kit MAK237 (Sigma Aldrich, St. Louis, USA). The protein concentration of the samples was analyzed using the BCA assay, as previously described. The samples were diluted to obtain a final concentration of 25 µg proteins/50 µL and then processed according to the kit instructions. Fluorescence was read at Ex/Em = 355/495 nm.
Supplementary Figure 7. Effect of Aβ1-6A2V(D) on the BACE activity. (A) Dose-dependent inhibitory effect of Aβ1-6A2V(D) on BACE activity determined in vitro. (B) BACE activity determined in the brain homogenates of 3xTg-AD TBI mice (N = 3) treated (TBI Aβ1-6A2V(D)) or not (TBI vehicle) with 50 mg/kg b.w. Aβ1-6A2V(D) and sacrificed 24 h after the last administration. Data are mean ± SD, one-way ANOVA, and Bonferroni’s post hoc test.

C. elegans = conditions: in vivo; cited from earlier work
[3] = ref [16]; cited from earlier work
Aβ soluble protofibrils = conditions: ref [3]; cited from earlier work
From the text: Alzheimer’s disease (AD) is a double proteinopathy characterized by amyloid-β (Aβ) and tau pathology and is the most common dementia in older adults. Despite enormous efforts that have been made in the last few decades to find effective therapy, there are still few weapons available to fight this disease. […] Since the approval of aducanumab, ...

**Q.** With “GRKKRRQRRR [TAT, TAT48-56(D) (…), reference compound]” as the molecule, how does the “Total tau protein level in P301L brain homogenate” value [1] read?
**A.** but not TAT alone, significantly reduced the tau protein level

**Q.** For `CC(C)[C@@H](NC(=O)[C@H](N)CC(=O)O)C(=O)N[C@H](CCC(=O)O)C(=O)N[C@H](Cc1ccccc1)C(=O)N[C@H](CCCNC(=N)N)C(=O)N[C@H](Cc1c[nH]cn1)C(=O)O` [Aβ1-6A2V(D)] (H-[dD][dV][dE][dF][dR][dH]-OH), which “Peptide level in brain areas close to the contusion site, 24 h” value ([2]; intranasal 50 mg/kg b.w., 24 h after administration) is on record?
**A.** high levels of peptide still detectable 24 h after the administration

**Q.** What about the “Presence of peptide in brain regions” value ([2]; single intranasal dose 50 mg/kg b.w. 10 min post-injury, 4-h and 24-h) of the same molecule?
**A.** present in the cerebral cortex, hippocampus, caudate-putamen, and cerebellum

**Q.** What about the “Peptide level in brain, 72 h” value ([2]; single intranasal dose 50 mg/kg b.w. 10 min post-injury, 72 h after administration) of the same molecule?
**A.** not detectable

**Q.** And the “Peptide level in ipsi- and contra-lateral hemispheres, up to 48 h” value ([2]; single intranasal dose 50 mg/kg b.w. 10 min post-injury, high levels persisting, although low, up to 48 h)?
**A.** high Aβ1-6A2V(D) levels were detected in the ipsi- and contra-lateral hemispheres that persisted, although at low levels, up to 48 h

**Q.** And the IC50 (BACE)?
**A.** 126 nM

**Q.** What about the “Passage through the worm's membrane” value (C. elegans) of the same molecule?
**A.** only in the presence of the TAT sequence, Aβ1-6A2V(D) can pass through the worm’s membrane

**Q.** And the “Brain distribution after single intranasal administration, AD mouse” value [3]?
**A.** distributed in the AD mouse brain

B1: Lecanemab: a humanized monoclonal antibody that binds with high affinity to Aβ soluble protofibrils (antibody, chains of the INN, looked up, V domains shown)
VH: EVQLVESGGGLVQPGGSLRLSCSASGFTFSSFGMHWVRQAPGKGLEWVAYISSGSSTIYYGDTVKGRFTISRDNAKNSLFLQMSSLRAEDTAVYYCAREGGYYYGRSYYTMDYWGQGTTVTVSS
VL: DVVMTQSPLSLPVTPGAPASISCRSSQSIVHSNGNTYLEWYLQKPGQSPKLLIYKVSNRFSGVPDRFSGSGSGTDFTLRISRVEAEDVGIYYCFQGSHVPPTFGPGTKLEIK
**Q.** For B1, which “Binding affinity to Aβ soluble protofibrils” value (Aβ soluble protofibrils) is on record?
**A.** binds with high affinity to Aβ soluble protofibrils
